Measured values reported in ChEMBL document CHEMBL1144906, “Characterization of the 5-HT(7) receptor. Determination of the pharmacophore for 5-HT(7) receptor agonism and CoMFA-based modeling of the agonist binding site” (J Med Chem, 2003).
Active and inactive are the calls of the source. No cut-off for these calls is given here.

Key:
[1] = target: 5-hydroxytryptamine receptor 7 (Rattus norvegicus, UniProt P32305); assay: Binding affinity at rat 5-hydroxytryptamine 7 receptor.
[2] = target: 5-hydroxytryptamine receptor 7 (Rattus norvegicus) (UniProt P32305); assay: Agonistic activity against rat 5-HT7 adenyl cyclase expressed by HEK293 cells; format: functional, cell-based
Chain of 5-hydroxytryptamine receptor 7 (Rattus norvegicus) (P32305 whole entry): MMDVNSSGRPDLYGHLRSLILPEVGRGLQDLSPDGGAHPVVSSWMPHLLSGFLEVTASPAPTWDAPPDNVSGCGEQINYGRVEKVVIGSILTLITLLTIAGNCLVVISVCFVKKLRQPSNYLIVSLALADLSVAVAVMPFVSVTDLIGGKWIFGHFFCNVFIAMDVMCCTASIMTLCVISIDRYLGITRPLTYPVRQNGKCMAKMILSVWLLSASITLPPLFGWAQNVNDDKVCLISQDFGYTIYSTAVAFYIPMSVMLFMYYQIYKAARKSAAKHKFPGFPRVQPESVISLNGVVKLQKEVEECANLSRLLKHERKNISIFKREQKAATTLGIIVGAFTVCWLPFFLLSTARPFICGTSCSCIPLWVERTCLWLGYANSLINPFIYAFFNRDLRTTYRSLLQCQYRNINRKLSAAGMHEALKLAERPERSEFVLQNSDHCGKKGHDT

[3] = target: 5-hydroxytryptamine receptor 7 (Rattus norvegicus) (UniProt P32305); assay: Agonistic activity against rat 5-HT7 adenyl cyclase expressed in HEK293 cells; Active; format: functional, cell-based
[4] = target: 5-hydroxytryptamine receptor 7 (Rattus norvegicus) (UniProt P32305); conditions: HEK293

Chain of 5-hydroxytryptamine receptor 7 (P32305 whole entry): as above

Structure (SMILES) | Ki [1] [nM] | Increase [2] [%] | Increase [3] | Increase [4]
COc1ccc2[nH]c(C)c(CCN(C)C)c2c1 | 1120 | 17 | – | –
COc1ccc2[nH]cc(CCN)c2c1 | – | – | Active | –
Cc1[nH]c(C)c(-c2cccc3c2CC[C@H](N(C)C)C3)c1C | 0.832 | – | Active | –
COc1ccc2[nH]cc(CCN(C)C)c2c1 [MEBUFOTENIN] | 39.8 | 92 | – | –
COc1ccc2c(c1)CC[C@@H](N)C2 | 1580 | 58 | – | –
COc1ccc2[nH]cc(CCN3CCCC3)c2c1 | 631 | 39 | – | –
CCCN(CCC)[C@H]1CCc2cccc(OC)c2C1 | 339 | 99 | – | –
CCN(CC)[C@@H]1CCc2cccc(OC)c2C1 | 87.1 | 73 | – | –
c1ccc2c(N3CCNCC3)cccc2c1 | – | – | Active | –
Cc1c(NC2=NCCN2)cccc1-c1ccccc1 | – | – | Active | –
CCCN(CCC)[C@@H]1CCc2cccc(OC)c2C1 | 33.9 | 92 | – | –
NCCc1c[nH]c2ccc(C(N)=O)cc12 | – | 100 | – | –
COc1cccc2c1C[C@H](N)CC2 | 123 | 73 | – | –
NCCc1c[nH]c2ccc(O)cc12 | – | – | – | Active
CCCN(CCC)[C@@H]1CCc2cccc(O)c2C1 | 45.7 | – | Active | –
CCN(CC)C(=O)[C@@H]1C=C2c3cccc4[nH]cc(c34)C[C@H]2N(C)C1 | – | – | Active | –
CN(C)CCc1c[nH]c2ccc(O)cc12 [BUFOTENINE] | 7.94 | – | Active | –
CN(C)[C@H]1CCc2c(cccc2-c2cccc3ccccc23)C1 | 0.251 | – | Active | –
COc1ccccc1N1CCNCC1 | – | – | Active | –
COc1ccc2cccc(N3CCNCC3)c2c1 | 20.4 | 25 | – | –
